Target: P. falciparum apicoplast DNA polymerase (Pf-apPOL) (Plasmodium falciparum, UniProt Q8ILY1)
Test: Fluorescence-based high-throughput DNA polymerase assay (molecular beacon), primary screen and dose-response
Assay type: biochemical
Procedure, shortened: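 Single-point screening used 10 µM compound with 20 nM polymerase, 20 nM hairpin substrate and 6 µM dNTPs for 90 min at 25 °C. Confirmatory titrations (2.5–80 µM) followed fluorescence at three times, and IC50 was derived from a fit including a cooperativity term n.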

[1] = primary screen value by plate and well; 90 min, 10 µM
[2] = primary screen value of the 186 hits; unit not given; 90 min, 10 µM
[3] = supplemental file 2, sheet IC50 nontoxic compounds; Pf-apPOL

P. falciparum apicoplast DNA polymerase (Pf-apPOL), sequence (Q8ILY1 entry or part of it): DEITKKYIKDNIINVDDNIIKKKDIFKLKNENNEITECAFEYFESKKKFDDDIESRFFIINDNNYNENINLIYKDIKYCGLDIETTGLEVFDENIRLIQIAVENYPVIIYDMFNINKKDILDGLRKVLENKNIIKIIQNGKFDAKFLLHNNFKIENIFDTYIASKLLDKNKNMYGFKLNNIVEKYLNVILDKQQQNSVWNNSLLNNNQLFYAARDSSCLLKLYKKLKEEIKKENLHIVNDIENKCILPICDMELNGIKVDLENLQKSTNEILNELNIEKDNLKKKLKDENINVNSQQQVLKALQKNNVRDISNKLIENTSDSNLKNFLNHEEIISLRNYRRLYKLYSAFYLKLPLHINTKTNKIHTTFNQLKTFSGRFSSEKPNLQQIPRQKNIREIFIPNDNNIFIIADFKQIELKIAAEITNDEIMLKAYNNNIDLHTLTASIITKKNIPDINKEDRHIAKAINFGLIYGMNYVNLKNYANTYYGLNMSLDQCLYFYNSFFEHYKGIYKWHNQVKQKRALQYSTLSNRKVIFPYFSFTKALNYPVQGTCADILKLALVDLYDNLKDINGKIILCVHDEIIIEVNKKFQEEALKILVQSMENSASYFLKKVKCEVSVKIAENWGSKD

COCC(=O)Nc1c(-c2cccc(F)c2)nc2cc(C)ccn12 [Molecule 44, COCC(=O)Nc1c(nc2n1ccc(c2)C)c1cccc(c1)F]
% inhibition Apo pol 10' (DRC-1; 10'; concentration 2.5): 6.785% | % inhibition Apo pol 10' (DRC-1; 10'; concentration 5): 30.033% | % inhibition Apo pol 10' (DRC-1; 10'; concentration 10): 50.0286% | % inhibition Apo pol 10' (DRC-1; 10'; concentration 20): 55.8788% | % inhibition Apo pol 10' (DRC-1; 10'; concentration 40): 80.2368% | % inhibition Apo pol 10' (DRC-1; 10'; concentration 80): 83.5036% | % inhibition Apol 90' (DRC-1; 90'; concentration 2.5): 1.502% | % inhibition Apol 90' (DRC-1; 90'; concentration 5): 18.1602% | % inhibition Apol 90' (DRC-1; 90'; concentration 10): 35.5455% | % inhibition Apol 90' (DRC-1; 90'; concentration 20): 42.2252% | % inhibition Apol 90' (DRC-1; 90'; concentration 40): 74.869% | % inhibition Apol 90' (DRC-1; 90'; concentration 80): 86.4562% | % inhibition apPOL 180' (DRC-1; 180'; concentration 2.5): -2.445% | % inhibition apPOL 180' (DRC-1; 180'; concentration 5): 8.4449% | % inhibition apPOL 180' (DRC-1; 180'; concentration 10): 23.452% | % inhibition apPOL 180' (DRC-1; 180'; concentration 20): 30.1351% | % inhibition apPOL 180' (DRC-1; 180'; concentration 40): 67.7953% | % inhibition apPOL 180' (DRC-1; 180'; concentration 80): 86.4237% | % inhibition Apo pol 5' (DRC-2; 5'; concentration 2.5): 10% | % inhibition Apo pol 5' (DRC-2; 5'; concentration 5): 29% | % inhibition Apo pol 5' (DRC-2; 5'; concentration 10): 41% | % inhibition Apo pol 5' (DRC-2; 5'; concentration 20): 50% | % inhibition Apo pol 5' (DRC-2; 5'; concentration 40): 52% | % inhibition Apo pol 5' (DRC-2; 5'; concentration 80): 45% | % inhibition Apol 40' (DRC-2; 40'; concentration 2.5): 9% | % inhibition Apol 40' (DRC-2; 40'; concentration 5): 27% | % inhibition Apol 40' (DRC-2; 40'; concentration 10): 40% | % inhibition Apol 40' (DRC-2; 40'; concentration 20): 59% | % inhibition Apol 40' (DRC-2; 40'; concentration 40): 69% | % inhibition Apol 40' (DRC-2; 40'; concentration 80): 69% | % inhibition ApPOL 90' (DRC-2; 90'; concentration 2.5): 8% | % inhibition ApPOL 90' (DRC-2; 90'; concentration 5): 24% | % inhibition ApPOL 90' (DRC-2; 90'; concentration 10): 38% | % inhibition ApPOL 90' (DRC-2; 90'; concentration 20): 58% | % inhibition ApPOL 90' (DRC-2; 90'; concentration 40): 73% | % inhibition ApPOL 90' (DRC-2; 90'; concentration 80): 74% | % inhibition apPOL 180' (DRC-2; 180'; concentration 2.5): 3.16% | % inhibition apPOL 180' (DRC-2; 180'; concentration 5): 15% | % inhibition apPOL 180' (DRC-2; 180'; concentration 10): 27% | % inhibition apPOL 180' (DRC-2; 180'; concentration 20): 51% | % inhibition apPOL 180' (DRC-2; 180'; concentration 40): 73% | % inhibition apPOL 180' (DRC-2; 180'; concentration 80): 77% | % inhibition Apol 40' (conc. 5; 40'; DRC-2): 27% | % inhibition apPOL 180' (conc. 10; 180'; DRC-2): 27% | % inhibition Apol 40' (conc. 40; 40'; DRC-2): 69% | % inhibition ApPOL 90' (conc. 40; 90'; DRC-2): 73% | % inhibition apPOL 180' (conc. 40; 180'; DRC-2): 73% | % inhibition Apol 40' (conc. 80; 40'; DRC-2): 69% | DNA Pol [1]: 43 | DNA Pol [2]: 43

CCOc1cccc2cc(C(=O)Nc3nnc(-c4ccno4)o3)oc12 [Molecule 28]
IC50 [3]: 7.04 µM

CN1CC(=Cc2ccco2)C(=O)C(=Cc2ccco2)C1 [Molecule 65]
IC50 [3]: 7.51 µM

O=C(O)CC1SC(c2ccc3c(c2)OCO3)=NC1=O (stereo not shown) [Molecule 69, OC(=O)CC1SC(=NC1=O)c1ccc2c(c1)OCO2]
DNA Pol ('DNA Pol'; screening value, unit not given; 90 min, 10 µM): 73 | % inhibition Apo pol 10' (DRC-1; 10'; concentration 2.5): 9.093% | % inhibition Apo pol 10' (DRC-1; 10'; concentration 5): 10.6697% | % inhibition Apo pol 10' (DRC-1; 10'; concentration 10): 24.5481% | % inhibition Apo pol 10' (DRC-1; 10'; concentration 20): 37.0336% | % inhibition Apo pol 10' (DRC-1; 10'; concentration 40): 59.8933% | % inhibition Apo pol 10' (DRC-1; 10'; concentration 80): 73.2432% | % inhibition Apol 90' (DRC-1; 90'; concentration 2.5): 0.8612% | % inhibition Apol 90' (DRC-1; 90'; concentration 5): 2.259% | % inhibition Apol 90' (DRC-1; 90'; concentration 10): 10.3106% | % inhibition Apol 90' (DRC-1; 90'; concentration 20): 18.6533% | % inhibition Apol 90' (DRC-1; 90'; concentration 40): 43.3337% | % inhibition Apol 90' (DRC-1; 90'; concentration 80): 58.9692% | % inhibition apPOL 180' (DRC-1; 180'; concentration 2.5): -4.62% | % inhibition apPOL 180' (DRC-1; 180'; concentration 5): -4.006% | % inhibition apPOL 180' (DRC-1; 180'; concentration 10): 2.363% | % inhibition apPOL 180' (DRC-1; 180'; concentration 20): 9.6301% | % inhibition apPOL 180' (DRC-1; 180'; concentration 40): 35.5256% | % inhibition apPOL 180' (DRC-1; 180'; concentration 80): 52.4762% | % inhibition Apo pol 5' (DRC-2, 5', concentration 2.5): 14% | % inhibition Apo pol 5' (DRC-2, 5', concentration 5): 9% | % inhibition Apo pol 5' (DRC-2, 5', concentration 10): 20% | % inhibition Apo pol 5' (DRC-2, 5', concentration 20): 29% | % inhibition Apo pol 5' (DRC-2, 5', concentration 40): 41% | % inhibition Apo pol 5' (DRC-2, 5', concentration 80): 49% | % inhibition Apol 40' (DRC-2, 40', concentration 2.5): 9% | % inhibition Apol 40' (DRC-2, 40', concentration 5): 7% | % inhibition Apol 40' (DRC-2, 40', concentration 10): 16% | % inhibition Apol 40' (DRC-2, 40', concentration 20): 23% | % inhibition Apol 40' (DRC-2, 40', concentration 40): 37% | % inhibition Apol 40' (DRC-2, 40', concentration 80): 51% | % inhibition ApPOL 90' (DRC-2, 90', concentration 2.5): 5.65% | % inhibition ApPOL 90' (DRC-2, 90', concentration 5): 4% | % inhibition ApPOL 90' (DRC-2, 90', concentration 10): 10% | % inhibition ApPOL 90' (DRC-2, 90', concentration 20): 16% | % inhibition ApPOL 90' (DRC-2, 90', concentration 40): 33% | % inhibition ApPOL 90' (DRC-2, 90', concentration 80): 50% | % inhibition apPOL 180' (DRC-2, 180', concentration 2.5): -0.895% | % inhibition apPOL 180' (DRC-2, 180', concentration 5): -1.56% | % inhibition apPOL 180' (DRC-2, 180', concentration 10): 3% | % inhibition apPOL 180' (DRC-2, 180', concentration 20): 7% | % inhibition apPOL 180' (DRC-2, 180', concentration 40): 23% | % inhibition apPOL 180' (DRC-2, 180', concentration 80): 43% | % inhibition Apol 40' (conc 2.5 (unit not given); 40'; DRC-2): 9% | % inhibition Apo pol 5' (conc 5 (unit not given); 5'; DRC-2): 9% | % inhibition Apol 40' (conc 5 (unit not given); 40'; DRC-2): 7% | % inhibition Apol 40' (conc 10 (unit not given); 40'; DRC-2): 16% | % inhibition Apol 40' (conc 20 (unit not given); 40'; DRC-2): 23% | % inhibition ApPOL 90' (conc 20 (unit not given); 90'; DRC-2): 16% | % inhibition apPOL 180' (conc 20 (unit not given); 180'; DRC-2): 7% | % inhibition apPOL 180' (conc 40 (unit not given); 180'; DRC-2): 23% | DNA Pol (primary screen hit value, DNA Pol (186 hits); 90 min, 10 µM): 73

O=C(NNC(=O)C(F)(F)Sc1ccccc1)c1ccsc1 [Molecule 68]
IC50 [3]: 21 µM

O=C1NCCCn2cc(S(=O)(=O)Nc3ccccc3)cc21 [KU0214835]
% inhibition Apo pol 10' (DRC-1; 10'; concentration 2.5): 3.062% | % inhibition Apo pol 10' (DRC-1; 10'; concentration 5): 6.352% | % inhibition Apo pol 10' (DRC-1; 10'; concentration 10): 23.7327% | % inhibition Apo pol 10' (DRC-1; 10'; concentration 20): 40.9778% | % inhibition Apo pol 10' (DRC-1; 10'; concentration 40): 76.8886% | % inhibition Apo pol 10' (DRC-1; 10'; concentration 80): 90.7287% | % inhibition Apol 90' (DRC-1; 90'; concentration 2.5): -1.959% | % inhibition Apol 90' (DRC-1; 90'; concentration 5): -0.5686% | % inhibition Apol 90' (DRC-1; 90'; concentration 10): 11.8703% | % inhibition Apol 90' (DRC-1; 90'; concentration 20): 23.2222% | % inhibition Apol 90' (DRC-1; 90'; concentration 40): 60.7318% | % inhibition Apol 90' (DRC-1; 90'; concentration 80): 88.5247% | % inhibition apPOL 180' (DRC-1; 180'; concentration 2.5): -6.967% | % inhibition apPOL 180' (DRC-1; 180'; concentration 5): -5.597% | % inhibition apPOL 180' (DRC-1; 180'; concentration 10): 2.257% | % inhibition apPOL 180' (DRC-1; 180'; concentration 20): 8.277% | % inhibition apPOL 180' (DRC-1; 180'; concentration 40): 41.6614% | % inhibition apPOL 180' (DRC-1; 180'; concentration 80): 83.4683% | % inhibition Apo pol 5' (DRC-2; 5'; concentration 2.5): 5.45% | % inhibition Apo pol 5' (DRC-2; 5'; concentration 5): 8% | % inhibition Apo pol 5' (DRC-2; 5'; concentration 10): 25% | % inhibition Apo pol 5' (DRC-2; 5'; concentration 20): 44% | % inhibition Apo pol 5' (DRC-2; 5'; concentration 40): 53% | % inhibition Apo pol 5' (DRC-2; 5'; concentration 80): 50% | % inhibition Apol 40' (DRC-2; 40'; concentration 2.5): 7% | % inhibition Apol 40' (DRC-2; 40'; concentration 5): 8% | % inhibition Apol 40' (DRC-2; 40'; concentration 10): 24% | % inhibition Apol 40' (DRC-2; 40'; concentration 20): 48% | % inhibition Apol 40' (DRC-2; 40'; concentration 40): 66% | % inhibition Apol 40' (DRC-2; 40'; concentration 80): 70% | % inhibition ApPOL 90' (DRC-2; 90'; concentration 2.5): 5.66% | % inhibition ApPOL 90' (DRC-2; 90'; concentration 5): 7% | % inhibition ApPOL 90' (DRC-2; 90'; concentration 10): 21% | % inhibition ApPOL 90' (DRC-2; 90'; concentration 20): 44% | % inhibition ApPOL 90' (DRC-2; 90'; concentration 40): 66% | % inhibition ApPOL 90' (DRC-2; 90'; concentration 80): 74% | % inhibition apPOL 180' (DRC-2; 180'; concentration 2.5): 2% | % inhibition apPOL 180' (DRC-2; 180'; concentration 5): 3.52% | % inhibition apPOL 180' (DRC-2; 180'; concentration 10): 14% | % inhibition apPOL 180' (DRC-2; 180'; concentration 20): 31% | % inhibition apPOL 180' (DRC-2; 180'; concentration 40): 59% | % inhibition apPOL 180' (DRC-2; 180'; concentration 80): 76% | % inhibition Apol 40' (conc. 2.5; 40'; DRC-2): 7% | % inhibition Apo pol 5' (conc. 5; 5'; DRC-2): 8% | % inhibition Apol 40' (conc. 5; 40'; DRC-2): 8% | % inhibition ApPOL 90' (conc. 5; 90'; DRC-2): 7% | % inhibition Apo pol 5' (conc. 20; 5'; DRC-2): 44% | % inhibition ApPOL 90' (conc. 20; 90'; DRC-2): 44% | % inhibition Apol 40' (conc. 40; 40'; DRC-2): 66% | % inhibition ApPOL 90' (conc. 40; 90'; DRC-2): 66% | DNA Pol [1]: 21 | DNA Pol [2]: 21
